From US6440967B1, “Combination of a GABAA alpha 5 inverse agonist and COX-2 inhibitor, NSAID, estrogen or vitamin E” (Merck & Co., Inc., priority 1998, dated 2002)

melting point: 247.5 to 249 °C
Structure (SMILES): Cc1cc(-c2nnc3c4ccccc4c(OCc4cccc(Br)n4)nn23)no1 [Reference Example 2, 6-(6-Bromopyridin-2-yl)methyloxy-3-(5-methylisoxazol-3-yl)-1,2,4-triazolo[3,4-a]phthalazine]
